Where “and” joins values, the source holds several entries; their conditions need not be identical. Equal entries are not always repeated.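 Protocol summary: plate cells (96-well), add compound at 5 concentrations, incubate 48 h, interpolate endpoints linearly. GI50 = concentration required for 50% inhibition of growth. The concentration for full growth arrest is given as TGI.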 Bounds are passed on as bounds.

Among the test systems are TK-10 renal; HL-60(TB) leukemia; NCI-H522 lung; OVCAR-8 ovarian; U251 CNS; K-562 leukemia; MCF7 breast; SNB-19 CNS; SK-OV-3 ovarian; HCT-15 colon.
What all share (assay): DTP human tumour cell line panel, 48 h

As for `NS(=O)(=O)c1c(O)c2ccccc2oc1=O`, the TGI in the test on TK-10 renal, with HL-60(TB) leukemia, in the test on NCI-H522 lung, in the test with OVCAR-8 ovarian, in the test with U251 CNS and in the test with K-562 leukemia was > 100 µM throughout. Moreover, the TGI in the test on MCF7 breast and with SNB-19 CNS was > 100 µM throughout.
Consider `CC1=C(C(=O)NNC(=O)C[N+](C)(C)C)CC(C(=O)NNC(=O)C[N+](C)(C)C)=C(C)N1`, for which the TGI with TK-10 renal, in the test on SK-OV-3 ovarian, in the test with HL-60(TB) leukemia, in the test on HCT-15 colon, in the test with NCI-H522 lung and in the test on OVCAR-8 ovarian was > 100 µM each time. In addition, the TGI in the test on U251 CNS, in the test with K-562 leukemia, in the test on MCF7 breast and in the test on SNB-19 CNS was > 100 µM throughout.
For `CCOC(=O)c1c(C)n(-c2ccc(C)cc2)c(=O)c2ccccc2c(=O)c2c(=O)ccc(=O)c1=2`, the TGI in the test with TK-10 renal is 29.4 µM; in the test on SK-OV-3 ovarian it was 73.3 µM; in the test with HL-60(TB) leukemia it was 40.8 µM; with HCT-15 colon, 35.1 µM; in the test with NCI-H522 lung, 42.6 µM; in the test on OVCAR-8 ovarian, 33.6 µM. Further, the TGI with U251 CNS was determined as 44.9 µM; in the test with K-562 leukemia, 32.1 µM; in the test with MCF7 breast, 63.9 µM; in the test with SNB-19 CNS, 51.7 µM.
As for `C/C=C(/CCC1NCCc2c1[nH]c1ccccc21)[Si](C)(C)C` (stereo not given), the GI50 in the test on TK-10 renal was > 100 µM and 12.2 µM; in the test with SNB-19 CNS, > 100 µM and 13.9 µM. The TGI was > 100 µM and 24.8 µM with TK-10 renal; > 100 µM and 26.2 µM with SK-OV-3 ovarian; 18.5 µM in the test on HCT-15 colon; > 100 µM and 24.4 µM with OVCAR-8 ovarian; > 100 µM and 13.6 µM in the test with U251 CNS; > 100 µM in the test on K-562 leukemia. In addition, the TGI with SNB-19 CNS is > 100 µM and 27.3 µM.
`NC(Cc1cc(I)c(Oc2ccc(O)c(I)c2)c(I)c1)C(=O)O` (stereo not given): the TGI with TK-10 renal, in the test with SK-OV-3 ovarian, in the test on HCT-15 colon, with NCI-H522 lung, in the test with OVCAR-8 ovarian and in the test on U251 CNS was > 100 µM in each case. Moreover, the TGI with MCF7 breast and with SNB-19 CNS was > 100 µM in each case.
As to `Fc1ccc2c(c1)SC1=Nc3sc4cc(F)ccc4[n+]3CN12`, the TGI in the test on TK-10 renal was 42.7 µM; in the test with SK-OV-3 ovarian it was > 100 µM; in the test on HL-60(TB) leukemia, 0.184 µM; in the test with HCT-15 colon, > 100 µM; in the test on NCI-H522 lung it was 35.2 µM; in the test with OVCAR-8 ovarian, 38 µM. The TGI in the test with U251 CNS was 46.3 µM; in the test on K-562 leukemia it was 43.9 µM; in the test on MCF7 breast it was > 100 µM; in the test on SNB-19 CNS, 38.4 µM.
Regarding `NCCCCNOCCCN`, the TGI with TK-10 renal, in the test with SK-OV-3 ovarian, in the test with NCI-H522 lung, in the test on OVCAR-8 ovarian, with U251 CNS and in the test on K-562 leukemia was > 100 µM in each case. The TGI in the test with MCF7 breast and in the test on SNB-19 CNS was > 100 µM each time.
For the compound `COC(=O)C1=C(O)C(C(=O)OC)[C@@]2(O)[C@@H](C(=O)OC)[C@H](C)C[C@@H]1[C@@H]2C(=O)OC` (stereo not given in full), the TGI in the test with TK-10 renal was > 100 µM; in the test with SK-OV-3 ovarian it was 72.9 µM; with HL-60(TB) leukemia, 73.8 µM; with HCT-15 colon, 92.6 µM; in the test with NCI-H522 lung, 50.7 µM; with U251 CNS, 53.2 µM. For the same compound, the TGI with K-562 leukemia, in the test on MCF7 breast and in the test with SNB-19 CNS was > 100 µM throughout.
As to `O=c1c(-c2ccccc2)c(SCCCN2CCCCC2)n(-c2ccccc2)c(=S)n1-c1ccccc1`, the TGI was 37.3 µM in the test with TK-10 renal; 45.4 µM with SK-OV-3 ovarian; 38.6 µM with HL-60(TB) leukemia; 38.7 µM in the test with HCT-15 colon; 41.1 µM in the test with NCI-H522 lung; 37.9 µM with OVCAR-8 ovarian. In addition, the TGI with U251 CNS was determined as 29.1 µM; in the test with K-562 leukemia it was 34.1 µM; in the test on MCF7 breast, 31.4 µM.
As for `CC(C)(CCCCC(C)(C)NC1=NCCO1)NC1=NCCO1`, the TGI in the test with TK-10 renal, in the test on SK-OV-3 ovarian, in the test on HL-60(TB) leukemia, in the test with HCT-15 colon, in the test on NCI-H522 lung and in the test on OVCAR-8 ovarian was > 10 µM throughout. Besides, the TGI in the test on U251 CNS, in the test on K-562 leukemia, with MCF7 breast and in the test with SNB-19 CNS was > 10 µM throughout.
Consider `C(=C\c1cc[n+](CCc2ccccc2)cc1)/c1ccccc1`, for which the total growth inhibition concentration (TGI) in the test with TK-10 renal was > 100 µM; with SK-OV-3 ovarian it was > 100 µM; in the test with HCT-15 colon, > 100 µM; in the test with NCI-H522 lung it was 45.4 µM; with OVCAR-8 ovarian it was 19.5 µM; with U251 CNS, 18.9 µM. Moreover, the TGI with K-562 leukemia is 63.6 µM; in the test on MCF7 breast, > 100 µM; in the test with SNB-19 CNS, 50.9 µM.
As to `O=c1c2ccccc2nc2n1CCc1c-2[nH]c2ccccc12`, the TGI is 63.5 µM in the test with TK-10 renal; 37.8 µM in the test with SK-OV-3 ovarian; > 100 µM with HL-60(TB) leukemia; 71.8 µM with OVCAR-8 ovarian; 28.6 µM with U251 CNS; > 100 µM with K-562 leukemia. Besides, the TGI in the test on SNB-19 CNS amounted to 29.2 µM.
In the case of `O=[N+]([O-])c1ccc(N/N=C\c2cc(Br)ccc2O)nc1`, the GI50 was 1.27 µM in the test on SK-OV-3 ovarian; 0.314 µM with HL-60(TB) leukemia; 0.437 µM with HCT-15 colon; 0.485 µM in the test with NCI-H522 lung; 0.415 µM with OVCAR-8 ovarian; 0.736 µM with U251 CNS. Besides, the results for the GI50 in the test with K-562 leukemia, in the test with MCF7 breast and with SNB-19 CNS were 0.612 µM, 0.489 µM and 1.05 µM, respectively. Also, the total growth inhibition concentration (TGI) with SK-OV-3 ovarian was 12 µM; in the test with HL-60(TB) leukemia, > 100 µM; in the test with HCT-15 colon, > 100 µM; in the test on NCI-H522 lung, 3.23 µM; with OVCAR-8 ovarian it was 8.86 µM; with U251 CNS, 3.24 µM. The total growth inhibition concentration (TGI) was > 100 µM in the test with K-562 leukemia, > 100 µM in the test with MCF7 breast and 19.8 µM in the test on SNB-19 CNS.
For `COC(=O)C(C)NP(=O)(OCc1cccc(Cn2cnc3c(N)ncnc32)c1)Oc1ccccc1` (stereo not given), the GI50 was > 100 µM in the test on TK-10 renal; 46.8 µM in the test with HL-60(TB) leukemia; > 100 µM in the test with HCT-15 colon; 36 µM in the test on NCI-H522 lung; > 100 µM with OVCAR-8 ovarian; > 100 µM with U251 CNS. Also, the GI50 with K-562 leukemia is > 100 µM; in the test with MCF7 breast, 14.9 µM. Also, the total growth inhibition concentration (TGI) with TK-10 renal, in the test with HL-60(TB) leukemia, with HCT-15 colon, with NCI-H522 lung, in the test on OVCAR-8 ovarian and in the test on U251 CNS was > 100 µM throughout. Also, the TGI in the test with K-562 leukemia is > 100 µM; in the test on MCF7 breast, 66.6 µM.
Regarding `NCCc1ccc(S(=O)(=O)O)cc1[N+](=O)[O-]`, the TGI in the test on TK-10 renal, in the test on SK-OV-3 ovarian, in the test on HL-60(TB) leukemia, with HCT-15 colon, with NCI-H522 lung and with OVCAR-8 ovarian was > 100 µM in each case. For the same compound, the TGI with U251 CNS, in the test with K-562 leukemia, in the test with MCF7 breast and in the test with SNB-19 CNS was > 100 µM each time.
In the case of `COc1cc(CCN)c(OC)c(OC)c1`, the TGI in the test on TK-10 renal, in the test with SK-OV-3 ovarian, with HL-60(TB) leukemia, with HCT-15 colon, in the test with NCI-H522 lung and in the test with OVCAR-8 ovarian was > 100 µM throughout. Further, the TGI in the test with U251 CNS, with K-562 leukemia, with MCF7 breast and in the test with SNB-19 CNS was > 100 µM each time.
For `CC(C)C(=O)Cc1ccc2ccccc2n1`, the TGI in the test on TK-10 renal, with SK-OV-3 ovarian, in the test on HL-60(TB) leukemia, in the test with HCT-15 colon, in the test with NCI-H522 lung and in the test with OVCAR-8 ovarian was > 100 µM throughout. Further, the TGI with U251 CNS, in the test on MCF7 breast and with SNB-19 CNS was > 100 µM in each case.

Source of the values: PubChem BioAssay (NCI).
